Measured values from patent US20130231480A1, “SEQUENCE SPECIFIC DOUBLE-STRANDED DNA/RNA BINDING COMPOUNDS AND USES THEREOF” (GENEARREST LTD, priority 2010, published 2013).

Assays:
25 mer A-T-DNA [1] = assay: TM measurement by RT-PCR (HRM/SYBR green), A-T DNA; format: binding; conditions: for shift in TM of A-T DNA: (d/dT) fluorescence (465-510), compared to the control without addition; for TM of 25 mer A-T-DNA in the treated well: control wells 56.1-57.1° C.
Procedure: (§1) The primers listed in Table 4 were purchased from Sigma Aldrich (Israel). Primers number 1 and 3 are complementary and annealed to form CG/GC double-stranded DNA fragment, and primers number 5 and 7 are complementary and annealed to form AT double-stranded DNA fragment. The DNA complementary oligomers were hybridized in a medium salt buffer containing 10 mM NaCl, 10 mM sodium phosphate and 0.1 mM EDTA, pH 7.0. The samples were heated to 90° C. for 5 min, slowly cooled to 20° C. and left at 4° (1 until used for TM measurements with RT-PCR.
(§2) According to this method, 5 μl of a selected double-stranded DNA is incubated with a 5 μl solution of a selected compound at RT for 5 min; 10 μl HRM/SYB (high resolution melting/syber green I) (X2) are then added; and the TM is then measured. The run program for TM measurement is as following: keep temperature of final solution at 25° C. for 5 min, raise temperature up to 99° C. with a rate of 0.1° C./sec, and then cool to 37° C.
(§3) In a further study, the effect of AH-11 as well as three additional similar compounds having the same heterocyclic (pyridine) core on the TM of DNA double-stranded sequences consisting of A-T or C-G base pairs only was tested by RT-PCR as described in Materials and Methods. The additional compounds tested are 4-amino-N-(6-aminopyridin-2-yl)butanamide, N,N′-(pyridine-2,6-diyl)bis(3-aminopropanamide), and N,N′-(pyridine-2,6-diyl)bis(4-aminobutanamide), herein identified […] and AH-14, respectively (chemical structures are shown in Scheme 5). […] Compounds AH-11, AH-12 and AH-13 increased the TM of 25 mer A-T-DNA by 4.2° C., 5.7° C. and 9.9° C., respectively. In all four cases, no effect was observed on the TM of 25 mer C-G-DNA (the TM shift range between 0.3 and 0.8° C.).
(§4) In this study, the ability of monomer units M1-6a, designed to be specific for A-T base pairs only, and M4-4a, designed to be specific for C-G base pairs only, to effectively and selectively bind to DNA double-stranded sequences consisting of A-T or C-G base pairs only was tested using the RT-PCR method as described in Material and Methods. Nevertheless, in order to neutralize a possible influence of the carboxylic groups of these monomers on the specificity and selectivity of the monomers, the compounds practically used were 3-(2-amino-9-(2-((2-(tert-butoxycarbonylamino)ethyl)(2-ethoxy-2-oxoethyl)amino)-2-oxoethyl)-9H-purin-6-ylamino)-N,N,N-trimethylpropan-1-aminium and 3-(9-(2-((2-(tert-butoxycarbonylamino)ethyl)(2-ethoxy-2-oxoethyl)amino)-2-oxoethyl)-2-oxo-2,9-dihydro-1H-purin-6-ylamino)-N,N,N-trimethylpropan-1-aminium, which are analogs of these monomer units M1-6a and M4-4a, respectively, in which the carboxyl groups are protected with ethyl (see Scheme 10 and 17).

25 mer C-G-DNA [2] = assay: TM measurement by RT-PCR (HRM/SYBR green), C-G DNA; format: binding; conditions: for shift in TM of C-G DNA: (d/dT) fluorescence (465-510), compared to the control without addition; for TM of 25 mer C-G-DNA in the treated well: control wells 84.3-86° C.
Procedure: as §1, §2, §3, §4
The biological activity of the polymers synthesized, i.e., their ability to specifically interact with specific fragments of double-stranded DNA, was tested using the RT-PCR method, as described in Materials and Methods.

25 mer A-T-DNA [3] = assay: TM of treated duplex DNA by UV spectra at 260 nm, A-T DNA; format: binding; conditions: UV 260 nm; incubated at 37° C. for 36 hours; TM without compound 53° C.
Procedure: (§5) Duplex DNA (dsDNA-1,2) sequences are formed by incubating a solution of single-strand DNA-1 and single-strand DNA-2 (1:1) at 90° C. for 5 min, and slowly cooling down to RT for 1-2 hours. Treated Duplex DNA (dsDNA-1,2 bonded to a triplex forming molecule of the invention) is formed by incubating a solution of triplex forming molecule (TFM) of the invention and dsDNA-1,2 (1:1) at 37° C. for 36 hours.
(§6) The melting temperature (TM), i.e., the temperature at which a DNA double helix dissociates into single strands, measurements of Duplex DNA or Treated Duplex DNA are carried out using quartz cuvettes with an optical path length of 1 cm on a Cray 300 UV/vis spectrophotometer interfaced with a computer for data collection and analysis. The temperature is increased from 30° C. to 98° C. at the rate of 1° C./min, and the TM is determined by plotting the first derivative of the absorbance at 260 nm vs. temperature profile. TM is defined as the temperature at which half the molecules are single-stranded.
(§7) In order to test the effect of AH-11, designed to be specific for A-T base pair, on the TM of DNA double-stranded sequences consisting of A-T or C-G base pairs only, two solutions each containing one of the aforesaid sequences were incubated with a solution containing the compound AH-11 at 37° C. for 36 hours, and treated double-stranded DNA were formed. […]

25 mer C-G-DNA [4] = assay: TM of treated duplex DNA by UV spectra at 260 nm, C-G DNA; format: binding; conditions: UV 260 nm; incubated at 37° C. for 36 hours
Procedure: as §5, §6, §7

[5] = tested on: restriction enzyme (satI); assay: Prevention of restriction enzyme digestion of a PCR product (agarose gel); format: biochemical; conditions: for preventing restriction enzyme satI from digesting the DNA fragment: lanes 5+5B, 5+7B, 10+7B compared with cut 5 and cut 10 without AH-13
Excerpt: This can be seen by comparing lanes “5+5B”, “5+7B” and “[…]” with “cut 5” and “cut 10”, wherein no AH-13 was used.

25 mer A-T-DNA [6] = assay: TM measurement by RT-PCR (HRM/SYBR green), A-T DNA; format: binding; conditions: incubation time from 5 min to 60 or 100 min

| Molecule | shift in TM of A-T DNA (25 mer A-T-DNA [1]) [°C] | TM of 25 mer A-T-DNA in the treated well (25 mer A-T-DNA [1]) [°C] | shift in TM of C-G DNA (25 mer C-G-DNA [2]) [°C] | effect on the TM of 25 mer A-T-DNA (25 mer A-T-DNA [1]) | TM of 25 mer C-G-DNA in the treated well (25 mer C-G-DNA [2]) [°C] | other results |
| --- | --- | --- | --- | --- | --- | --- |
| 3-(2-amino-9-(2-((2-(tert-butoxycarbonylamino)ethyl)(2-ethoxy-2-oxoethyl)amino)-2-oxoethyl)-9H-purin-6-ylamino)-N,N,N-trimethylpropan-1-aminium [analog of M1-6a] | 6.9 | 63 | < 1.0 |  |  | effect on the TM of 25 mer C-G-DNA (25 mer C-G-DNA [2]): did not affect |
| 3-(9-(2-((2-(tert-butoxycarbonylamino)ethyl)(2-ethoxy-2-oxoethyl)amino)-2-oxoethyl)-2-oxo-2,9-dihydro-1H-purin-6-ylamino)-N,N,N-trimethylpropan-1-aminium [analog of M4-4a] | 0.3 |  | 5.6 | did not affect | 90.1 |  |
| NCCC(=O)Nc1cccc(N)n1 [AH-11, 3-amino-N-(6-aminopyridin-2-yl)propanamide] | 4.2 |  |  |  |  | TM of 25 mer A-T-DNA after treatment (25 mer A-T-DNA [3]): 85 °C; effect on the TM of 25 mer C-G-DNA (25 mer C-G-DNA [4]): did not affect at all |
| NCCCC(=O)Nc1cccc(N)n1 [AH-12, 4-amino-N-(6-aminopyridin-2-yl)butanamide] | 5.7 |  |  |  |  |  |
| NCCC(=O)Nc1cccc(NC(=O)CCN)n1 [AH-13, N,N′-(pyridine-2,6-diyl)bis(3-aminopropanamide)] | 9.9 |  |  |  |  | interference with satI enzyme activity in lane 10+5B ([5]; 10 μl PCR product + 5 μl AH-13, both cut and uncut DNA present): not sufficient to completely interfere with the enzyme activity; preventing restriction enzyme satI from digesting the DNA fragment [5]: capable in a concentration dependent manner of preventing a restriction enzyme (satI); preventing restriction enzyme satI from digesting the DNA fragment ([5]; listed as AH-1): capable of specifically interfering with the activity of the restriction enzyme satI, in a concentration dependent manner |
| NCCCC(=O)Nc1cccc(NC(=O)CCCN)n1 [AH-14, N,N′-(pyridine-2,6-diyl)bis(4-aminobutanamide)] | 11.7 |  | 0.8 | most effective compound |  |  |
| CC(C)(C)OC(=O)NCCN(CC(=O)O)C(=O)Cn1cnc2c(NCCC[N+](C)(C)C)nc(N)nc21 [M1-6a, 3-(2-amino-9-(2-((2-(tert-butoxycarbonylamino)ethyl)(carboxymethyl)amino)-2-oxoethyl)-9H-purin-6-ylamino)-N,N,N-trimethylpropan-1-aminium] |  | 63 |  |  | 85.1 | TM of treated 25 mer A-T-DNA upon increasing the incubation time (25 mer A-T-DNA [6]): No difference; effect on the TM of 25 mer C-G-DNA (25 mer C-G-DNA [2]): did not affect at all |
| CC(C)(C)OC(=O)NCCN(CC(=O)O)C(=O)Cn1cnc2c(NCCC[N+](C)(C)C)[nH]c(=O)nc21 [M4-4a, 3-(9-(2-((2-(tert-butoxycarbonylamino)ethyl)(carboxymethyl)amino)-2-oxoethyl)-2-oxo-2,9-dihydro-1H-purin-6-ylamino)-N,N,N-trimethylpropan-1-aminium] |  | 57.4 |  | did not affect at all | 90.1 |  |
